Source: patent publication US10919935B2, “Antimicrobial peptide derived from myxinidin peptide and uses thereof” (INDUSTRY-ACADEMIC COOPERATION FOUNDATION, CHOSUN UNIVERSITY, priority 2015, dated 2021)
Residues, ends and D or L forms follow the SMILES beside them.

Key:
S. typhimurium 8009 = assay: MIC at salt concentration (Example 3); type: cell-based, Salmonella typhimurium
Experimental: (§1) To compare the antimicrobial activity of the peptide produced by the method of Example 1, the inventors of the present invention measured the minimum growth inhibitory concentration (MIC), which is minimum concentration of the peptide showing no dissociation of bacterial cells, at salt concentration.
(§2) Specifically, the bacterial strain described in the above Table 2 was cultured in each medium to a mid-log phase. Then, after dilution to bacterial cell concentration of 2×10^5 cells/100 μl, the cells were inoculated to a microtiter plate (NUNC, USA). Thereafter, myxinidin 1, myxinidin 2, or myxinidin 3 peptides which have been synthesized in Example 1 above was diluted, 1/2 times for each, with BSA+150 mM sodium chloride (NaCl) solution, physiological saline (PBS) solution, or 10 mM sodium phosphate (SP) solution in a 96-well plate. After adding the cells to a plate, the cells were cultured for 12 hours at 37° C. By using a microtiter plate reader (Merck Elisa reader, Germany), the absorbance was measured at a wavelength of 600 nm to determine the MIC value of each bacterial strain. As a control group, myxinidin as a mother peptide was subjected to the same processes as above and the MIC value of each bacterial strain was obtained.

S. typhimurium 8013 = assay: MIC at salt concentration (Example 3); type: cell-based, Salmonella typhimurium
Experimental: as §1, §2

S. typhimurium = assay: MIC at salt concentration (Example 3); type: cell-based, Salmonella typhimurium
Experimental: as §1, §2

S. aureus 3114 = assay: MIC at salt concentration (Example 3); type: cell-based, Staphylococcus aureus
Experimental: as §1, §2

S. aureus 3709 = assay: MIC at salt concentration (Example 3); type: cell-based, Staphylococcus aureus
Experimental: as §1, §2

S. aureus [1] = assay: MIC at salt concentration (Example 3); type: cell-based, Staphylococcus aureus
Experimental: as §1, §2

L. monocytogenes [2] = assay: MIC at salt concentration (Example 3); type: cell-based, Listeria monocytogenes
Experimental: as §1, §2

Escherichia coli 1229 = assay: MIC at salt concentration (Example 3); type: cell-based
Experimental: as §1, §2

P. aeruginosa 3592 = assay: MIC at salt concentration (Example 3); type: cell-based, Pseudomonas aeruginosa
Experimental: as §1, §2

P. aeruginosa 5018 = assay: MIC at salt concentration (Example 3); type: cell-based, Pseudomonas aeruginosa
Experimental: as §1, §2

P. aeruginosa [3] = assay: MIC at salt concentration (Example 3); type: cell-based, Pseudomonas aeruginosa
Experimental: as §1, §2

P. aeruginosa [4] = assay: Anti-biofilm activity (crystal violet); type: cell-based, Pseudomonas aeruginosa
Experimental: (§3) To compare the antimicrobial activity of the peptide produced by the method of Example 1, the inventors of the present invention measured the biofilm inhibitory concentration value of the peptide showing no dissociation of bacterial cells.
(§4) Specifically, the Gram-negative bacteria and Gram-positive bacteria among the bacterial strains described in the above Table 2 were cultured in each medium to a mid-log phase. Then, after dilution to bacterial cell concentration of 5×10^5 cells/100 μl, the cells were inoculated to a microtiter plate (NUNC, USA). Thereafter, myxinidin 1, myxinidin 2, or myxinidin 3 peptides which have been synthesized in Example 1 above was diluted, 1/10 times for each, with physiological saline (PBS) solution in a 96-well plate. After adding the cells to a plate, the cells were cultured for 12 hours at 37° C. After removing the supernatant, the cells were fixed with 100% methanol and reacted for 2 hours with Crystal violet staining solution followed by rinsing for 3 times. Then, after dissolving in 95% ethanol, the absorbance was measured at a wavelength of 595 nm by using a microtiter plate reader (Merck Elisa reader, Germany) to determine the biofilm inhibitory concentration value of each bacterial strain. As a control group, myxinidin as a mother peptide was subjected to the same processes as above and the biofilm inhibitory concentration value of each bacterial strain was obtained.

S. aureus [5] = assay: Anti-biofilm activity (crystal violet); type: cell-based, Staphylococcus aureus
Experimental: as §3, §4

L. monocytogenes [6] = assay: Anti-biofilm activity (crystal violet); type: cell-based, Listeria monocytogenes
Experimental: as §3, §4

in vitro = type: cell-based; settings: human, NHK cells (normal human keratinocytes)
Experimental: To determine the cytotoxicity of the peptide produced by the method of Example 1 in normal cell line, toxicity was measured by using NHK cells (Normal Human Keratinocyte cells).
Specifically, NHK cells which have been cultured in Epilife medium with 60 μM calcium (Gibco, USA) containing 10% HKGS (Human Keratinocyte Growth Supplement) (Gibco, USA) were aliquoted in a 96-well plate to have 1×10^4 cells per well. After culturing them for 24 hours, the cells were subjected to a treatment with myxinidin, myxinidin 1, myxinidin 2, or myxinidin 3 peptide, each at concentration of 3.125, 6.25, 12.5, or 25.0 μM/well, followed by reaction for 24 hours in a 5% CO2 incubator. After the culture, a reaction solution containing 5 mg/ml MTT (Thiazolyl Blue Tetrazolium Bromide) dissolved in physiological saline (PBS) was added in an amount of 20 μl to each well and allowed to react for 4 hours. After that, the supernatant was removed, and, by dissolving MTT crystals that are formed by adding 200 μl of DMSO, the absorbance at 560 nm was measured to determine the cell survival ability.

[7] = NaCl (BSA+150 mM sodium chloride)

- Antimicrobial activity (MIC) according to salt concentration (S. typhimurium 8009; [7]): >32
- Antimicrobial activity (MIC) according to salt concentration (S. typhimurium 8009; PBS): >32
- Antimicrobial activity (MIC) according to salt concentration (S. typhimurium 8009; SP (10 mM sodium phosphate)): >32
- Antimicrobial activity (MIC) according to salt concentration (S. typhimurium 8013; [7]): >32
- Antimicrobial activity (MIC) according to salt concentration (S. typhimurium 8013; PBS): >32
- Antimicrobial activity (MIC) according to salt concentration (S. typhimurium 8013; SP (10 mM sodium phosphate)): >32
- Antimicrobial activity (MIC) according to salt concentration (S. typhimurium; [7]): >32
- Antimicrobial activity (MIC) according to salt concentration (S. typhimurium; PBS): >32
- Antimicrobial activity (MIC) according to salt concentration (S. typhimurium; SP (10 mM sodium phosphate)): >32
- Antimicrobial activity (MIC) according to salt concentration (S. aureus 3114; [7]): >32
- Antimicrobial activity (MIC) according to salt concentration (S. aureus 3114; PBS): >32
- Antimicrobial activity (MIC) according to salt concentration (S. aureus 3114; SP (10 mM sodium phosphate)): >32
- Antimicrobial activity (MIC) according to salt concentration (S. aureus 3709; [7]): >32
- Antimicrobial activity (MIC) according to salt concentration (S. aureus 3709; PBS): >32
- Antimicrobial activity (MIC) according to salt concentration (S. aureus 3709; SP (10 mM sodium phosphate)): >32
- Antimicrobial activity (MIC) according to salt concentration (S. aureus [1]; [7]): >32
- Antimicrobial activity (MIC) according to salt concentration (S. aureus [1]; PBS): >32
- Antimicrobial activity (MIC) according to salt concentration (S. aureus [1]; SP (10 mM sodium phosphate)): >32
- Antimicrobial activity (MIC) according to salt concentration (L. monocytogenes [2]; [7]): >32
- Antimicrobial activity (MIC) according to salt concentration (L. monocytogenes [2]; PBS): >32
- Antimicrobial activity (MIC) according to salt concentration (L. monocytogenes [2]; SP (10 mM sodium phosphate)): >32
- Antimicrobial activity (MIC) according to salt concentration (Escherichia coli 1229; [7]): >32
- Antimicrobial activity (MIC) according to salt concentration (Escherichia coli 1229; PBS): >32
- Antimicrobial activity (MIC) according to salt concentration (Escherichia coli 1229; SP (10 mM sodium phosphate)): >32
- Antimicrobial activity (MIC) according to salt concentration (P. aeruginosa 3592; [7]): >32
- Antimicrobial activity (MIC) according to salt concentration (P. aeruginosa 3592; PBS): >32
- Antimicrobial activity (MIC) according to salt concentration (P. aeruginosa 3592; SP (10 mM sodium phosphate)): >32
- Antimicrobial activity (MIC) according to salt concentration (P. aeruginosa 5018; [7]): >32
- Antimicrobial activity (MIC) according to salt concentration (P. aeruginosa 5018; PBS): >32
- Antimicrobial activity (MIC) according to salt concentration (P. aeruginosa 5018; SP (10 mM sodium phosphate)): >32
- Antimicrobial activity (MIC) according to salt concentration (P. aeruginosa [3]; [7]): >32
- Antimicrobial activity (MIC) according to salt concentration (P. aeruginosa [3]; PBS): >32
- Antimicrobial activity (MIC) according to salt concentration (P. aeruginosa [3]; SP (10 mM sodium phosphate)): >32
SMILES: CC[C@H](C)[C@H](NC(=O)CN)C(=O)N[C@@H](Cc1c[nH]cn1)C(=O)N[C@@H](Cc1c[nH]cn1)C(=O)N[C@H](C(=O)N[C@@H](CC(C)C)C(=O)N[C@@H](CCCCN)C(=O)N[C@@H](Cc1ccc(O)cc1)C(=O)NCC(=O)N[C@@H](CCCCN)C(=O)N1CCC[C@H]1C(=O)N[C@@H](CO)C(N)=O)[C@@H](C)CC [Myxinidin 1, GIHHILKYGKPS-NH2] (H-GIHHILKYGKPS-NH2; N-terminus assumed)
- Biofilm forming ability (P. aeruginosa [4]; peptide 0.25 μM): 100%
- Biofilm forming ability (P. aeruginosa [4]; peptide 0.5 μM): 100%
- Biofilm forming ability (P. aeruginosa [4]; peptide 1 μM): 94%
- Biofilm forming ability (P. aeruginosa [4]; peptide 2 μM): 93%
- Biofilm forming ability (P. aeruginosa [4]; peptide 4 μM): 92%
- Biofilm forming ability (P. aeruginosa [4]; peptide 8 μM): 92%
- Biofilm forming ability (P. aeruginosa [4]; peptide 16 μM): 89%
- Biofilm forming ability (P. aeruginosa [4]; peptide 32 μM): 88%
- Biofilm forming ability (S. aureus [5]; peptide 0.25 μM): 98%
- Biofilm forming ability (S. aureus [5]; peptide 0.5 μM): 88%
- Biofilm forming ability (S. aureus [5]; peptide 1 μM): 87%
- Biofilm forming ability (S. aureus [5]; peptide 2 μM): 86%
- Biofilm forming ability (S. aureus [5]; peptide 4 μM): 83%
- Biofilm forming ability (S. aureus [5]; peptide 8 μM): 83%
- Biofilm forming ability (S. aureus [5]; peptide 16 μM): 79%
- Biofilm forming ability (S. aureus [5]; peptide 32 μM): 75%
- Biofilm forming ability (L. monocytogenes [6]; peptide 0.25 μM): 100%
- Biofilm forming ability (L. monocytogenes [6]; peptide 0.5 μM): 100%
- Biofilm forming ability (L. monocytogenes [6]; peptide 1 μM): 100%
- Biofilm forming ability (L. monocytogenes [6]; peptide 2 μM): 100%
- Biofilm forming ability (L. monocytogenes [6]; peptide 4 μM): 99%
- Biofilm forming ability (L. monocytogenes [6]; peptide 8 μM): 98%
- Biofilm forming ability (L. monocytogenes [6]; peptide 16 μM): 97%
- Biofilm forming ability (L. monocytogenes [6]; peptide 32 μM): 93%
- viability at 24 h, 3.125 µM (in vitro): 100%
- viability at 24 h, 6.25 µM (in vitro): 96%
- viability at 24 h, 12.5 µM (in vitro): 96%
- viability at 24 h, 25 µM (in vitro): 88%
